# According to ChEMBL document CHEMBL1201862, “PubChem BioAssay data set” (2004):
#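 The compound was tested at five concentrations on cells cultured in 96-well plates, with a 48-hour exposure period. Here, GI50 denotes the concentration required for 50% inhibition of growth.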 Calls of active or inactive are those of the source. Rule as the data show it: active = GI50 up to about 1.1 µM and inactive = higher.
# How the values were obtained:
# Experiment in all cases: NCI-60 cell line screen, 48 h
# [1] = system: DLD-1
# [2] = system: HOP-18
# [3] = system: LXFL 529
# [4] = system: KM-20L2
# [5] = system: DMS-114
# [6] = system: SNB-78
# [7] = system: DMS-273
# [8] = system: XF498
# [9] = system: RXF 631
SMILES,GI50 [1],GI50 [2],GI50 [3],GI50 [4],GI50 [5],GI50 [6],GI50 [7],GI50 [8],GI50 [9]
COc1nc(NC2OC(COC(C)=O)C(OC(C)=O)C(OC(C)=O)C2OC(C)=O)c(-c2csc(N)n2)c(=O)n1C (centres undefined),52.7 µM (inactive),39.4 µM (inactive),70 µM (inactive),> 100 µM (inactive),53.5 µM (inactive),62.2 µM (inactive),,,
Cc1ccc(NC(=O)CCC(CC(=O)C(C)(C)C)=NNC(=O)C(=O)NN)cc1C,> 100 µM (inactive),> 100 µM (inactive),> 100 µM (inactive),> 100 µM (inactive),,,> 100 µM (inactive),64.4 µM (inactive),
O=C(c1nc2ccc([N+](=O)[O-])cc2nc1O)C(O)c1ccc2c(c1)OCO2 (centres undefined),> 100 µM (inactive),> 100 µM (inactive),71.8 µM (inactive),47 µM (inactive),29.5 µM (inactive),,> 100 µM (inactive),,
COc1ccc(/C=C/C(=O)c2sc(N)nc2C)cc1,> 100 µM (inactive),> 100 µM (inactive),,> 100 µM (inactive),> 100 µM (inactive),> 100 µM (inactive),> 100 µM (inactive),,
COC(=O)C(C(=O)C(=O)Nc1nc2ccc([N+](=O)[O-])cc2s1)c1nc2ccc(Cl)cc2nc1O (centres undefined),> 100 µM (inactive),> 100 µM (inactive),> 100 µM (inactive),> 100 µM (inactive),> 100 µM (inactive),> 100 µM (inactive),> 100 µM (inactive),,> 100 µM (inactive)
O=C1C=CC(=O)c2c1cc1ccccc1c2O,1.66 µM (inactive),18.2 µM (inactive),1.9 µM (inactive),19 µM (inactive),,3.78 µM (inactive),12.7 µM (inactive),3.01 µM (inactive),
COc1nc(C(Cl)(Cl)Cl)c(Cl)c(OC)c1Cl [PENCLOMEDINE],42.6 µM (inactive),36.1 µM (inactive),,47 µM (inactive),25.4 µM (inactive),37.1 µM (inactive),40.4 µM (inactive),25.3 µM (inactive),17.6 µM (inactive)
CCN(CC)CCn1c2ccccc2c(=O)c2c(OC)ccc(OC)c21,,,68.5 µM (inactive),45.2 µM (inactive),,40.6 µM (inactive),37.3 µM (inactive),87.5 µM (inactive),
O=C1c2ccccc2C(=O)c2nc3ccc(Cl)cc3cc21,> 100 µM (inactive),,> 100 µM (inactive),> 100 µM (inactive),> 100 µM (inactive),> 100 µM (inactive),> 100 µM (inactive),> 100 µM (inactive),> 100 µM (inactive)
COc1cc2c(cc1OC)C(=O)N1CCCC1C(=O)S2 (centres undefined),> 100 µM (inactive),25.4 µM (inactive),> 100 µM (inactive),> 100 µM (inactive),> 100 µM (inactive),> 100 µM (inactive),> 100 µM (inactive),92.7 µM (inactive),
CC(C)CC(NC(=O)OC(C)(C)C)C(=O)Nc1ccc(Nc2nc(F)nc(-c3c4ccccc4cn3C)n2)cc1 (centres undefined),> 37.2 µM (inactive),> 100 µM (inactive),77.3 µM (inactive),37.6 µM (inactive),21.8 µM (inactive),14.7 µM (inactive),42.6 µM (inactive),> 85.1 µM (inactive),
O=C(/C=C/c1ccc(Cl)c(Cl)c1)c1cccc2ccccc12,2.49 µM (inactive),17.3 µM (inactive),2.28 µM (inactive),5.22 µM (inactive),2.3 µM (inactive),11.4 µM (inactive),4.05 µM (inactive),,17 µM (inactive)
CCC(CC)n1c(C)nc2c1C(=O)c1ccccc1C2=O,24.3 µM (inactive),,19.5 µM (inactive),39.4 µM (inactive),,49.7 µM (inactive),23.1 µM (inactive),,
CCCCCCCCCCCCn1[nH]c(C)c(C(=S)SCCCCCCCC)c1=O,19.6 µM (inactive),61.5 µM (inactive),53.2 µM (inactive),36.8 µM (inactive),26.7 µM (inactive),> 100 µM (inactive),99.5 µM (inactive),> 100 µM (inactive),75.7 µM (inactive)
O=C(N/C(=C\c1ccc(Oc2ccc(Cl)c(Cl)c2)cc1)c1nc2ccccc2[nH]1)c1ccccc1,17.7 µM (inactive),,12.5 µM (inactive),17.7 µM (inactive),,20.4 µM (inactive),21.2 µM (inactive),16.8 µM (inactive),
Cc1ccc(/N=N/c2ccc(N(CCC#N)CCC#N)cc2C)c(Br)c1,13.7 µM (inactive),15.6 µM (inactive),20 µM (inactive),,12.8 µM (inactive),24.7 µM (inactive),10 µM (inactive),9.08 µM (inactive),4.35 µM (inactive)
ClC(/N=N/c1ccccc1)=N/Nc1ccccc1,,20.8 µM (inactive),28.5 µM (inactive),51.1 µM (inactive),,> 100 µM (inactive),26.6 µM (inactive),40.4 µM (inactive),> 100 µM (inactive)
O=C1CCC(=O)c2c1c(O)c1ccncc1c2O,13.7 µM (inactive),26.9 µM (inactive),16.6 µM (inactive),20.9 µM (inactive),12 µM (inactive),23.7 µM (inactive),17.3 µM (inactive),18.4 µM (inactive),25.4 µM (inactive)
NC(=O)N/N=C(\CC1OC(=O)c2ccccc21)c1ccco1 (centres undefined),> 100 µM (inactive),> 100 µM (inactive),> 100 µM (inactive),> 100 µM (inactive),> 100 µM (inactive),,> 100 µM (inactive),,> 100 µM (inactive)
C=COC(=O)N[C@H]1CCc2cc(OC)c(OC)c(OC)c2-c2ccc(SC)c(=O)cc21,,> 100 µM (inactive),< 0.01 µM (active),< 0.01 µM (active),< 0.01 µM (active),< 0.01 µM (active),< 0.01 µM (active),< 0.01 µM (active),
COC(=O)C1=NC(=S)NC(c2ccccc2)C1c1nc2ccccc2o1 (centres undefined),> 50 µM (inactive),> 50 µM (inactive),> 50 µM (inactive),> 50 µM (inactive),> 50 µM (inactive),> 50 µM (inactive),,> 50 µM (inactive),
N/N=C(\Cc1ccccc1)NN=C(N)N,> 100 µM (inactive),> 100 µM (inactive),> 100 µM (inactive),,,> 100 µM (inactive),,> 100 µM (inactive),> 100 µM (inactive)
CN(C(=O)C12C3C4C1C1C2C3C41C(N)=O)C(C)(C)C (centres undefined),,,> 100 µM (inactive),,> 100 µM (inactive),> 100 µM (inactive),> 100 µM (inactive),> 100 µM (inactive),
O=C1OC(=O)c2c1c(-c1ccccc1)cn2-c1ccc(Cl)cc1,> 100 µM (inactive),> 100 µM (inactive),5.94 µM (inactive),22.1 µM (inactive),77.3 µM (inactive),> 100 µM (inactive),8.77 µM (inactive),> 100 µM (inactive),> 100 µM (inactive)
